Results taken from patent publication US9603980B2, “Layer-by-layer stereocomplexed polymers as drug depot carriers or coatings in medical devices” (Cardinal Health Switzerland 515 GmbH, priority 2008, dated 2017).

Key:
[1] = tested on: LDL; assay: Lag phase for LDL peroxidation ex vivo, diene conjugates after addition of copper ions; design: species or system human; conditions: treatment for one month; compared with vitamins alone or the combination of probucol and vitamins; preliminary results
[2] = tested on: restenosis after coronary angioplasty; assay: MVP randomized clinical trial, angiographic and clinical outcome; type: in vivo, human
Text: In addition, the invention enables the skilled practitioner to use probucol in conjunction with other percutaneous coronary interventions such as stenting if it is deemed appropriate. The present invention concerns the IVUS substudy from the MVP restenosis trial. MVP was a double-blind placebo-controlled randomized clinical trial with four study groups. The protocol was approved by the Montreal Heart Institute institutional review board. The MVP study design, inclusion and exclusion criteria have been previously described (N Engl J Med 1997; 365-372). Briefly, patients referred for elective coronary angioplasty were evaluated at least 30 days prior to their scheduled procedure. Eligible patients were asked to provide written informed consent. Patients were eligible if they were scheduled to undergo standard balloon angioplasty on at least one native coronary artery and had at least one de novo target lesion with luminal narrowing of fifty percent or more by caliper measurements. Beginning thirty days prior to scheduled angioplasty, patients were randomly assigned to receive either probucol alone, multivitamins alone, the combination of probucol and multivitamins, or placebo. Probucol 500 mg or matched placebo was administered twice daily. The multivitamin complex, consisting of vitamin E 700 IU, vitamin C 500 mg and beta-carotene 30,000 IU, or matched placebo was also administered in one tablet twice daily. All patients received an extra dose of probucol 1000 mg and/or vitamin E 2000 IU and/or matched placebos twelve hours before angioplasty, according to randomization assignment. […] Balloon angioplasty was performed according to standard techniques. […] The sequence of contrast injections with the exact degree of angulation was recorded and used for every angiogram. Coronary arteriograms (pre-, post-procedure, and final follow-up) were analyzed together using the Coronary Measurement System (CMS), as previously reported. Patient follow-up included clinical evaluation, exercise treadmill testing, blood chemistry, pill count and drug level measurements, and dietary assessment and intervention. Patients were readmitted for follow-up coronary angiography at five to seven months. Patients in whom arteriography was performed for clinical reasons before the fifth month returned for repeat angiographic examination at five to seven months if no definite angiographic restenosis was present on at least one dilated site. During follow-up, patients with recurrence or exacerbation of anginal symptoms were treated with medical therapy or revascularization procedures (reangioplasty or Coronary Bypass Surgery) as clinically indicated. […]

[3] = tested on: tissue hyperplasia and vascular remodeling after coronary angioplasty; assay: IVUS substudy of the MVP restenosis trial; type: in vivo, human; conditions: for Lumen area: Follow-up Post PTCA (change)
Text: Serial intravascular ultrasound (IVUS) examinations have been performed in a consecutive series of patients involved in the MVP trial. By providing tomographic views of coronary arteries with high resolution, IVUS allows quantitative assessment of changes in arterial lumen and wall dimensions. We were therefore able in this study to determine the pathophysiology of coronary restenosis after balloon angioplasty in patients systematically undergoing follow-up IVUS examination and determine the effect of probucol on tissue hyperplasia and vascular remodeling after coronary angioplasty.
The present invention concerns the IVUS substudy from the MVP restenosis trial. MVP was a double-blind placebo-controlled randomized clinical trial with four study groups. The protocol was approved by the Montreal Heart Institute institutional review board. The MVP study design, inclusion and exclusion criteria have been previously described (N Engl J Med 1997; 365-372). Briefly, patients referred for elective coronary angioplasty were evaluated at least 30 days prior to their scheduled procedure. Eligible patients were asked to provide written informed consent. Patients were eligible if they were scheduled to undergo standard balloon angioplasty on at least one native coronary artery and had at least one de novo target lesion with luminal narrowing of fifty percent or more by caliper measurements.
Beginning thirty days prior to scheduled angioplasty, patients were randomly assigned to receive either probucol alone, multivitamins alone, the combination of probucol and multivitamins, or placebo. Probucol 500 mg or matched placebo was administered twice daily. […] The sequence of contrast injections with the exact degree of angulation was recorded and used for every angiogram. Coronary arteriograms (pre-, post-procedure, and final follow-up) were analyzed together using the Coronary Measurement System (CMS), as previously reported. […] Patients were readmitted for follow-up coronary angiography at five to seven months. […]

[4] = In vitro release of sirolimus and cilostazol from single-layer coating; type: physicochemical; conditions: single-layer coating of FIG. 83
[5] = Porcine drug elution PK study of dual drug eluting coating; type: in vivo; conditions: after eight (8) days of implantation, single-layer coating of FIG. 83
Text: Another critical parameter for the performance of the thrombus resistance of a device coated with cilostazol is the duration of the drug release from the coating. This is of particular significance in the two weeks after device implantation. In the porcine drug elution PK studies of the dual drug eluting coating, both cilostazol and sirolius were slowly released from the coating, resulting in a sustained drug release profile. The purpose of the porcine PK study is to assess the local pharmacokinetics of a drug eluting stent at a given implantation time. Normally three stents are implanted in three different coronary arteries in a pig for a given time point and then retrieved for total drug recovery analysis. The stents are retrieved at predetermined time points; namely, 1, 3 and 8 days. The stents are extracted and the total amount of drug remaining on the stents is determined by analysis utilizing HPLC (high performance liquid chromatography) for total drug amount. The difference between the original amount of drug on the stent and the amount of drug retrieved at a given time represents the amount of drug released in that period. The continuous release of drug into surrounding arterial tissue is what prevents the neointimal growth and restenosis in the coronary artery. A normal plot represents the percentage of total drug released (%, y-axis) vs. time of implantation (day, x-axis). […]

[6] = compared to placebo, probucol given alone

Compound | protection against LDL oxidation [1] | reduction of the need for repeat angioplasty ([2]; at 6 month, compared to placebo, probucol given alone) | reduction of angiographic lumen loss [2, 6] | reduction of restenosis rate per segment [2, 6] | patients in whom restenosis still occurred ([2]; patients given probucol alone) | Lumen area ([3]; compliant patients only) | Lumen area ([3]; per segment) | increase in vessel enlargement ([3]; probucol only compared with placebo) | in vitro release [4] | drug remaining in the drug coating [5]
CC(C)(Sc1cc(C(C)(C)C)c(O)c(C(C)(C)C)c1)Sc1cc(C(C)(C)C)c(O)c(C(C)(C)C)c1 [Probucol Alone, 4,4′-([1-methylethylidene)bis(thio)]bis-[2,6-bis(1,1-dimethylethyl)phenol]] | significantly greater protection | fifty-eight | sixty-eight | forty-seven | over twenty | −0.15 ± 1.70 mm^2 | −0.15 ± 1.70 mm^2 | seven hundred-thirty | – | –
O=C1CCc2cc(OCCCCc3nnnn3C3CCCCC3)ccc2N1 [cilostazol, 6[4-(1-cyclohexyl-1H-tetrazol-5-yl)-butoxy]-3,4-dihydro-2-(1H)-quinolinone] | – | – | – | – | – | – | – | – | ~35% | ~80%
